The results in this text go back to ChEMBL document CHEMBL1151840, “Synthetic oligoribonucleotides containing arabinonucleotides act as agonists of TLR7 and 8” (Bioorg Med Chem Lett, 2009).

In data set [1] the test system is PBMC. Briefly: Stimulation of immune response in human PBMC assessed as induction of IL10 production at 150 ug/ml after 24 hrs. The data set is classed as functional, cell-based.
For data set [2], the system named is PBMC. Briefly: Stimulation of immune response in human PBMC assessed as induction of RANTES production at 150 ug/ml after 24 hrs. The data set is classed as functional, cell-based.
The species named for data set [3] is Homo sapiens. Briefly: Stimulation of immune response in human pDC assessed as induction of TNFalpha production at 150 ug/ml after 24 hrs. The format is functional.
Data set [4] concerns PBMC. Briefly: Stimulation of immune response in human PBMC assessed as induction of IL12 production at 150 ug/ml after 24 hrs. The format is functional, cell-based.
Data set [5] in a line: Stability in human serum assessed as full-length compound remaining after 10 mins by anion-exchange HPLC. The format is ADME, cell-free. To be noted: read-out: Stability.
Data set [6] relates to Mus musculus. Briefly: Stimulation of immune response in C57BL/6 mouse assessed as induction of serum IL12 production at 50 mg/kg, sc after 2 hrs by luminex multiplex assay. The data set is classed as functional, organism-based. Set-up: dose 50 mg/kg.
Data set [7] concerns PBMC. Kind of data set: Stimulation of immune response in human PBMC assessed as induction of IL1-beta production at 150 ug/ml after 24 hrs. The format is functional, cell-based.
Data set [8] deals with PBMC. Briefly: Stimulation of immune response in human PBMC assessed as induction of TNFalpha production at 150 ug/ml after 24 hrs. The data set is classed as functional, cell-based.
Data set [9] has as its system PBMC. Briefly: Stimulation of immune response in human PBMC assessed as induction of IL2R level at 150 ug/ml after 24 hrs. The format is functional, cell-based.
Data set [10] concerns PBMC. Kind of data set: Stimulation of immune response in human PBMC assessed as induction of IFN-gamma production at 150 ug/ml after 24 hrs. The format is functional, cell-based.
The species named for data set [11] is Homo sapiens. Kind of data set: Stimulation of immune response in human pDC assessed as induction of MIP1alpha production at 150 ug/ml after 24 hrs. The data set is classed as functional.
For data set [12], the species on record is Homo sapiens. Kind of data set: Stimulation of immune response in human pDC assessed as induction of IL12 production at 150 ug/ml after 24 hrs. The data set is classed as functional.
Data set [13] deals with PBMC. Kind of data set: Stimulation of immune response in human PBMC assessed as induction of MIP1beta production at 150 ug/ml after 24 hrs. The data set is classed as functional, cell-based.
For data set [14], the system named is PBMC. Kind of data set: Stimulation of immune response in human PBMC assessed as induction of IFNalpha production at 150 ug/ml after 24 hrs. The format is functional, cell-based.
For data set [15], the species on record is Homo sapiens. Kind of data set: Stimulation of immune response in human pDC assessed as induction of IFN-gamma production at 150 ug/ml after 24 hrs. The format is functional.
The species named for data set [16] is Homo sapiens. Briefly: Stimulation of immune response in human pDC assessed as induction of IFNalpha production at 150 ug/ml after 24 hrs. The format is functional.
The target in data set [17] is T1, Toll-like receptor 8 (Homo sapiens) (UniProt Q9NR97).
T1 sequence (whole entry): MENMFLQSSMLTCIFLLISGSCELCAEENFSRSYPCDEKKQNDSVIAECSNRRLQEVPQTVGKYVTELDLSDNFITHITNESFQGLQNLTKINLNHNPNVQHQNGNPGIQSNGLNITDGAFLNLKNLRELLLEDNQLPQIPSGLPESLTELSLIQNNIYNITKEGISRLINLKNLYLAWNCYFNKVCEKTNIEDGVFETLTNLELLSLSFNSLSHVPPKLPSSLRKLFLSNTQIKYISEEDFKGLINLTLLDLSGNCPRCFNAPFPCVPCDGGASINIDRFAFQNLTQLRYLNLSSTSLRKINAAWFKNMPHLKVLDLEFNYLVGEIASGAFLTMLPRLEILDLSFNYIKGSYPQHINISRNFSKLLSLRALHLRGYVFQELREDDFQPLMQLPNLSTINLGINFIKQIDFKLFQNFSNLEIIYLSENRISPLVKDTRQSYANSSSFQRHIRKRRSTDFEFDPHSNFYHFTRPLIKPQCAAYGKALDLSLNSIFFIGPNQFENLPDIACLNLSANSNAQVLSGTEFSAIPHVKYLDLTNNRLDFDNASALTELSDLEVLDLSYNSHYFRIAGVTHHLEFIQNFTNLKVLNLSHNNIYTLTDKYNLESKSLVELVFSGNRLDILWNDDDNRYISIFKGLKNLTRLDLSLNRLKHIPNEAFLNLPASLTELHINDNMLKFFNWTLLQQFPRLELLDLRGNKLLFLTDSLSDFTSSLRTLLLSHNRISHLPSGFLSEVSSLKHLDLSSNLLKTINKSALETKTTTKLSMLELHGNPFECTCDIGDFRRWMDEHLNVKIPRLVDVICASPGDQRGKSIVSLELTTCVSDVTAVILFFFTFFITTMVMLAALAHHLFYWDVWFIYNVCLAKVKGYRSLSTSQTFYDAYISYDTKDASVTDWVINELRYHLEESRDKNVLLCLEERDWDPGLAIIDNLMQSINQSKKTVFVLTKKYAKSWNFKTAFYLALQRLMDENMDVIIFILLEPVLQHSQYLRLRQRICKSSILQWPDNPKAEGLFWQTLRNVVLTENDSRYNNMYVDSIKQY
Briefly: Agonist activity at human TLR8 expressed in HEK293XL cells assessed as NF-kappaB activation after 18 hrs. The data set is classed as functional, cell-based.

For data set [18], the system named is PBMC. Kind of data set: Stimulation of immune response in human PBMC assessed as induction of IL8 production at 150 ug/ml after 24 hrs. The format is functional, cell-based.
Data set [19] has as its target T2, Toll-like receptor 7 (Homo sapiens) (UniProt Q9NYK1).
T2 sequence (whole entry): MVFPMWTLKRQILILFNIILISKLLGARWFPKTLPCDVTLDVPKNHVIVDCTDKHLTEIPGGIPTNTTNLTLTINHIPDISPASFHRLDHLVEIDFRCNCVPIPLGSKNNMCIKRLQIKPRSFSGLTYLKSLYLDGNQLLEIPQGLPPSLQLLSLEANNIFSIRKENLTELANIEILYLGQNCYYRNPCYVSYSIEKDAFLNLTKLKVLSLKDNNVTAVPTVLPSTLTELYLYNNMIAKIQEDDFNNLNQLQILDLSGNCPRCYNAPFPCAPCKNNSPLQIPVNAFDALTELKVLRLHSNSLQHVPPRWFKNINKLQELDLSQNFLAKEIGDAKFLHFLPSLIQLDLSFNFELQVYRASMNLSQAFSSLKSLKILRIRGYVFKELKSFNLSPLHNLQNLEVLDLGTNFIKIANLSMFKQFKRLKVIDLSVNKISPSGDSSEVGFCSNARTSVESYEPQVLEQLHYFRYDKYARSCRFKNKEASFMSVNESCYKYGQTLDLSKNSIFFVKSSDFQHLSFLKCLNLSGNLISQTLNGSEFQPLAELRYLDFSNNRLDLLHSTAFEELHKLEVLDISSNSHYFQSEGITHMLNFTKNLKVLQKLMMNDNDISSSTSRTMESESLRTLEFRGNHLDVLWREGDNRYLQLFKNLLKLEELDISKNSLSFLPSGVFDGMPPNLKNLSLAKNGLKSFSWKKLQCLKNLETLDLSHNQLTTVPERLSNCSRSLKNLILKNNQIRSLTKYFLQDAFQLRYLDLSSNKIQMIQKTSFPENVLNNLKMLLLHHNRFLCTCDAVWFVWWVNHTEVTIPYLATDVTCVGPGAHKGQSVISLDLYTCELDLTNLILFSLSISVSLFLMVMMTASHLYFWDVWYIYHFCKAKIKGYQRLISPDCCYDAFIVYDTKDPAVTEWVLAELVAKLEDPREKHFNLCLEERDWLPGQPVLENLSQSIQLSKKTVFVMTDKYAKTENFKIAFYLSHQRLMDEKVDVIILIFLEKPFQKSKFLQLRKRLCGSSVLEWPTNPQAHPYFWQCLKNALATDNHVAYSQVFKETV
Kind of data set: Agonist activity at human TLR7 expressed in HEK293XL cells assessed as NF-kappaB activation after 18 hrs. The format is functional, cell-based.

The test system of data set [20] is PBMC. Briefly: Stimulation of immune response in human PBMC assessed as induction of MIP1alpha production at 150 ug/ml after 24 hrs. The format is functional, cell-based.
Data set [21] relates to PBMC. Briefly: Stimulation of immune response in human PBMC assessed as induction of MCP1 production at 150 ug/ml after 24 hrs. The format is functional, cell-based.
The species named for data set [22] is Homo sapiens. Kind of data set: Stimulation of immune response in human pDC assessed as induction of MIP1beta production at 150 ug/ml after 24 hrs. The data set is classed as functional.

Active and inactive are the calls of the source. The rule behind the calls is not given here.

For the molecule `Nc1ncnc2c1ncn2[C@@H]1O[C@H](CO)[C@@H](OP(=O)(S)OC[C@H]2O[C@@H](n3cnc4c(N)ncnc43)[C@H](O)[C@@H]2OP(=O)(S)OC[C@H]2O[C@@H](n3cnc4c(N)ncnc43)[C@H](O)[C@@H]2OP(=O)(S)OC[C@H]2O[C@@H](n3cnc4c(N)ncnc43)[C@H](O)[C@@H]2OP(=O)(S)OC[C@H]2O[C@@H](n3cnc4c(N)ncnc43)[C@H](O)[C@@H]2OP(=O)(S)OC[C@H]2O[C@@H](n3cnc4c(N)ncnc43)[C@H](O)[C@@H]2OP(=O)(S)OC[C@H]2O[C@@H](n3cnc4c(N)ncnc43)[C@H](O)[C@@H]2OP(=O)(S)OC[C@H]2O[C@@H](n3cnc4c(N)ncnc43)[C@H](O)[C@@H]2OP(=O)(S)OC[C@H]2O[C@@H](n3cnc4c(N)ncnc43)[C@H](O)[C@@H]2OP(=O)(S)OC[C@H]2O[C@@H](n3cnc4c(N)ncnc43)[C@H](O)[C@@H]2OP(=O)(S)OC[C@H]2O[C@@H](n3cnc4c(N)ncnc43)[C@H](O)[C@@H]2OP(=O)(S)OCC(O)COP(=O)(S)O[C@H]2[C@@H](O)[C@H](n3cnc4c(N)ncnc43)O[C@@H]2COP(=O)(S)O[C@H]2[C@@H](O)[C@H](n3cnc4c(N)ncnc43)O[C@@H]2COP(=O)(S)O[C@H]2[C@@H](O)[C@H](n3cnc4c(N)ncnc43)O[C@@H]2COP(=O)(S)O[C@H]2[C@@H](O)[C@H](n3cnc4c(N)ncnc43)O[C@@H]2COP(=O)(S)O[C@H]2[C@@H](O)[C@H](n3cnc4c(N)ncnc43)O[C@@H]2COP(=O)(S)O[C@H]2[C@@H](O)[C@H](n3cnc4c(N)ncnc43)O[C@@H]2COP(=O)(S)O[C@H]2[C@@H](O)[C@H](n3cnc4c(N)ncnc43)O[C@@H]2COP(=O)(S)O[C@H]2[C@@H](O)[C@H](n3cnc4c(N)ncnc43)O[C@@H]2COP(=O)(S)O[C@H]2[C@@H](O)[C@H](n3cnc4c(N)ncnc43)O[C@@H]2COP(=O)(S)O[C@H]2[C@@H](O)[C@H](n3cnc4c(N)ncnc43)O[C@@H]2COP(=O)(S)O[C@H]2[C@@H](O)[C@H](n3cnc4c(N)ncnc43)O[C@@H]2CO)[C@H]1O` (some centres not stated), the outcome in data set [1], in data set [2], in [3], in data set [4], in data set [6] and in data set [7] was inactive. Further, the outcome in data set [8], in data set [9], in [10], in data set [11], in data set [12] and in data set [13] was inactive. Besides, the outcome in data set [14], in data set [15], in [16], in data set [17], in [18] and in data set [19] was inactive. The outcome in data set [20], in data set [21] and in [22] was inactive. For the same molecule, the remaining at 10 min in data set [5] is 90%.
